Consider one compound from patent US20220380371A1, “MLL1 INHIBITORS AND ANTI-CANCER AGENTS” (NOVARTIS AG, priority 2019, published 2022).

Assay [1] deals with wild type MLL1 four-member complex (MLL1-4C) (Homo sapiens, UniProt Q03164). The assay is described as follows: MLL1 LC-MS Assay. Type of assay: biochemical. The settings on record: read-out: MLL1 LCMS. Put shortly:
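Compound pre-incubated 20 min with MLL1-4C and SAM, then H3[1-21]-biotin (H3K4me0) substrate added; final 30 nM enzyme, 2.5 μM SAM, 10 μM peptide in Tris pH 8.0 with MgCl2, DTT, Tween 20, BSA. After 120 min at rt, TFA-quenched SAH quantified by LC-MS/MS with d4-SAH; IC50 from dose-response fit.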

In assay [2] the target is wild type MLL1 five-member complex (MLL1-5C) (Homo sapiens, UniProt Q03164). In words: MLL1 Flashplate Assay. Format: biochemical. The settings on record: read-out: MLL1 flash plate.
Assay [3] has as its system MV4-11 cells. The assay is described as follows: MV4-11 6-Day Cell Growth CTG (CellTiter-Glo) Assay. Type of assay: cell-based. As to conditions: Homo sapiens, MV4-11, 144 h, MV4-11 cell growth CellTiter-Glo, 6 days. In short, it runs like this: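 MV4-11 AML cells (RPMI 1640, 10% FBS) seeded at 300 cells/well and exposed for 6 days at 37 °C to a 12-point, 1:3 compound series starting at 50 μM final. Viable cells read by CellTiter-Glo luminescence; percent inhibition versus DMSO-only wells fitted to dose-response curves for IC50.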
In general terms: Cellular ATP, detected with luciferase, serves as a proxy for viable cell number.

Assay [4] concerns H3K4me3 in MV4-11 cells. In words: MV4-11 H3K4me3 Cellular ELISA Assay. Type of assay: cell-based. As to conditions: Homo sapiens, MV4-11, 48 h. In short, it runs like this:
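MV4-11 cells were treated for 48 h with 12-point 1:3 compound dilutions (from 10 mM stock), then histones were acid-extracted with 0.5M HCl and neutralized. H3K4me3 and total H3 were measured by HRP chemiluminescent ELISA, and inhibition versus DMSO after H3 normalization was curve-fitted for IC50.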
(In general: An ELISA detects its analyte on a solid surface through an enzyme-linked reagent.)

For the compound `CCOC(=O)[C@@]1(N)CCN(c2cc(Cl)cc(Br)c2Cn2cnc3c(N)ncnc32)C1` [Example 170], the IC50 in assay [1] is 50 to 100 nM; in assay [2] it was under 60 nM; in assay [3], under 2000 nM; in assay [4], under 1900 nM.
